Results published in ChEMBL document CHEMBL1149578, “Design, synthesis, and discovery of stilbene derivatives based on lithospermic acid B as potent protein tyrosine phosphatase 1B inhibitors” (Bioorg Med Chem Lett, 2007).
Activity calls are given as the source filed them. No cut-off for these calls is given here.

target: T1, Tyrosine-protein phosphatase non-receptor type 1 (Homo sapiens, UniProt P18031); test: (§1) Inhibition of PTP1B by colorimetric assay
T1 sequence (P18031 whole entry): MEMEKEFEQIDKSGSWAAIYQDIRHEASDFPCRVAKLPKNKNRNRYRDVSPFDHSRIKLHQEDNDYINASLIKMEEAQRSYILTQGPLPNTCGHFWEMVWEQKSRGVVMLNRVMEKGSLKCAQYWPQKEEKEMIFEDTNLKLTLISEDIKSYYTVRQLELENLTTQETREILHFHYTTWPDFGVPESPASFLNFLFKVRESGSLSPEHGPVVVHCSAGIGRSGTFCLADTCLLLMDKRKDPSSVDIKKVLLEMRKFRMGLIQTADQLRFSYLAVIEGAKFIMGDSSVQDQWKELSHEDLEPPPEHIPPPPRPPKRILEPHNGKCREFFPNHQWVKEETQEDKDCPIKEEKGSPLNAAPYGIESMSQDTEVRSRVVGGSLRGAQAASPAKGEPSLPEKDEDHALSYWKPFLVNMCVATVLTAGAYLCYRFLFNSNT

| SMILES | IC50 |
| --- | --- |
| OCc1ccc(/C=C/c2ccc(O)c(O)c2)cc1 | 260 µM |
| O=Cc1ccc(/C=C/c2ccc(O)c(O)c2)cc1 | 101 µM |
| COC(=O)c1ccc(/C=C/c2ccc(O)c(O)c2)cc1 | 25.6 µM |
| CCCCCCCCCCCCCCCC(=O)C1=C(O)[C@@H](CO)OC1=O | 45 µM |
| O=[N+]([O-])c1ccc(/C=C/c2cccc(O)c2O)c([N+](=O)[O-])c1 | 168 µM |
| O=[N+]([O-])c1ccc(/C=C/c2ccc(O)c(O)c2)c([N+](=O)[O-])c1 | 190 µM |
| OCc1ccc(/C=C\c2ccc(O)c(O)c2)cc1 | 138 µM |
| O=C(NCC1CCCO1)c1ccc(/C=C/c2ccc(O)c(O)c2)cc1 (stereo unspecified) | 35.4 µM |
| COC(=O)/C=C/c1ccc(/C=C/c2ccc(O)c(O)c2)cc1 | 14.9 µM |
| O=C(Nc1ccccc1)c1ccc(/C=C/c2ccc(O)c(O)c2)cc1 | 27.2 µM |

target: T2, Tyrosine-protein phosphatase non-receptor type 1 (Homo sapiens) (UniProt P18031); test: as §1
T2 sequence (whole entry): T1 sequence (P18031 whole entry)

| SMILES | Activity |
| --- | --- |
| COC(=O)c1ccc(/C=C/c2ccc(OC)c(OC)c2)cc1 | inactive |
| COc1ccc(/C=C/c2ccc(O)cc2)cc1OC | inactive |
| COc1cc(/C=C/C(=O)CC(=O)/C=C/c2ccc(O)c(OC)c2)ccc1O | inactive |
| C(=C/c1ccccc1)/c1ccccc1 | inactive |
| COC(=O)/C=C/c1ccc(/C=C/c2ccc(OC)c(OC)c2)cc1 | inactive |
| COC(=O)C=Cc1ccc(/C=C\c2ccc(O)c(O)c2)cc1 | inactive |
| O=C(O)/C=C/c1ccc(O)c(O)c1 | inactive |
| O=C(NCC1CCCO1)c1ccc(/C=C\c2ccc(O)c(O)c2)cc1 (stereo unspecified) | inactive |
| CCN(CC)C(=O)/C=C/c1ccc(O)c(O)c1 | inactive |
| O=[N+]([O-])c1ccc(/C=C/c2cccc(O)c2)c([N+](=O)[O-])c1 | inactive |
| O=C(/C=C/c1ccc(O)c(O)c1)Nc1ccccc1 | inactive |
